According to patent EP0837859B1, “TETRAHYDROFURAN ANTIFUNGALS” (SCHERING CORPORATION, priority 1995, dated 1997):

Test system: 11 strains of C. albicans and tropicalis
Assay: in vitro antifungal activity in EMEM (geometric mean MIC)
Assay type: cell-based
Conditions: Candida albicans, read-out: geometric mean MICs

Compound `CC[C@@H]([C@H](C)O)n1ncn(-c2ccc(N3CCN(c4ccc(OC[C@H]5CC[C@](Cn6cncn6)(c6ccc(F)cc6F)O5)cc4)CC3)cc2)c1=O` has an MIC of at least 0.01 µg/mL.
